Patent publication US6455522B1, “Cyclic sulfonamide derivatives as metalloproteinase inhibitors” (Bristol-Myers Squibb Pharma Company, priority 1998, dated 2002)

Test system: cartilage degradation
Test: Acute Cartilage Degradation Rat Model
Assay type: in vivo
Conditions: rats, after compound administration
Source text: A novel in vivo model of acute cartilage degradation in rats has been characterized as a method to determine the proteoglycan content in the synovial fluid after the induction of cartilage degradation.

**Q.** `COc1ccc2c(c1)c(CC(=O)O)c(C)n2C(=O)c1ccc(Cl)cc1` [Indomethacin] was tested. Which “ability to inhibit the demonstration of cartilage degradation, as measured by increased proteoglycan content in the synovial fluid” value did it give?
**A.** inactive
